In US10993437B2, “Anti-microbial polymer incorporating a quaternary ammonium group” (priority 2013, dated 2021):

Experiments:
Format in all cases: cell-based
Escherichia coli = assay: Antibiotic disk susceptibility test, rings of inhibition; conditions: for E. coli, diameter of ring of inhibition: Mueller-Hinton plate, 18-24 hrs at 37° C., 100 μg of compound per disc, control discs 10 or 30 μg; for E. coli, diameter of ring of inhibition, antimicrobial paper towels: 6 mm paper discs punched from paper towels, antibiotic control discs 10 or 30 ug
Description: (§1) Compounds were tested for antibacterial activity, as described in Ma et al. (2011), against pure cultures of Escherichia coli, Pseudomonas aeruginosa, Bacillus cereus, Proteus mirabilis/hauseri, and Staphylococcus aureus, supplied by Ward's Natural Science Ltd. (St. Catherines, Ontario, Canada). All cultures were maintained on Tryptic Soy agar. These cultures were then transferred using an inoculation loop to 10 mL of Tryptic soy broth, and grown at 37° C. for 24 hours. Triplicates of plate and broth cultures were made in case of error or contamination. Using a sterile swab, and aseptic techniques, the bacterial broth inocula were transferred to Mueller-Hinton plates and spread evenly, ensuring that the entire surface was inoculated. They were then left to dry for 3-5 minutes. The following control discs were used: Penicillin (10 μg), Tetracycline (30 μg), Chloramphenicol (30 μg), and Ampicillin (10 μg). Four antibiotic discs containing different compounds were placed equidistant from each other on a Mueller-Hinton plate. […] If clear rings of inhibition were present, the diameter was measured twice using a caliper. […] The paper towels were then allowed to dry. After, 5 cm from each edge of the paper towels was cut out (to prevent edge areas where spraying might have been irregular being tested), and from the remaining paper towels, a single hole punch machine was used to punch 6 mm paper discs from each of the paper towels.

Bacillus cereus = assay: as above; conditions: for B. cereus, diameter of ring of inhibition: Mueller-Hinton plate, 18-24 hrs at 37° C., 100 μg of compound per disc, control discs 10 or 30 μg; for B. cereus, diameter of ring of inhibition, antimicrobial paper towels: 6 mm paper discs punched from paper towels, antibiotic control discs 10 or 30 ug
Description: as §1

Staphylococcus aureus = assay: as above; conditions: for S. aureus, diameter of ring of inhibition: Mueller-Hinton plate, 18-24 hrs at 37° C., 100 μg of compound per disc, control discs 10 or 30 μg; for S. aureus, diameter of ring of inhibition, antimicrobial paper towels: 6 mm paper discs punched from paper towels, antibiotic control discs 10 or 30 ug
Description: as §1

Pseudomonas aeruginosa = assay: as above; conditions: for P. aeruginosa, diameter of ring of inhibition: Mueller-Hinton plate, 18-24 hrs at 37° C., 100 μg of compound per disc, control discs 10 or 30 μg
Description: as §1

[1] = tested on: Proteus mirabilis/hauseri; assay: as above; conditions: for P. hauseri, diameter of ring of inhibition: Mueller-Hinton plate, 18-24 hrs at 37° C., 100 μg of compound per disc, control discs 10 or 30 μg; for P. hauseri, diameter of ring of inhibition, antimicrobial paper towels: 6 mm paper discs punched from paper towels, antibiotic control discs 10 or 30 ug
Description: as §1

Aspergillus fumigatus = assay: Antifungal disk susceptibility test, rings of inhibition; conditions: for A. fumigatus, diameter of ring of inhibition: Sabouraud plate, 18-24 hrs at 35° C., 100 μg of compound per disc, Amphotericin B 100 ug or 20 μg
Description: (§2) Adapted from Messer et al., (2007), this protocol was used to test novel compounds for antifungal properties against yeasts and fungi. Compounds were tested for antifungal activity against pure cultures of Saccharomyces cerevisiae, Candida albicans supplied by Ward's Natural Science Ltd. and Aspergillus niger and Aspergillus fumigatus supplied by […]. (Inverness Medical, Ottawa, Ontario, Canada). All cultures were maintained on Sabouraud agar. […] The cultures of A. niger and A. fumigatus were transferred, using an inoculation loop, to new Sabouraud agar and grown for 48 hrs. at 27° C., and 35° C. respectively, to cause sporulation. Triplicates of all the plates and broth cultures were made in case of error or contamination. Using a sterile swab, and aseptic techniques, the cell suspension of S. cerevisiae, and C. albicans were transferred to Sabouraud agar plates and spread evenly, ensuring that the entire surface was inoculated. They were then left to dry for 10 minutes. […] The 0.2% Tween 80 reduces the hydrophobicity of the conidia, allowing the spores to be readily suspended (Messer et al., 2007). Alternatively two small circles containing fungal growth of the A Niger or A Fumigatus fungi were cut from the agar plates, and using a glass/PTFE tissue homoginzer, were mixed and homogenized with 5 ml of sterile MilliQ water to create a suspension of fungal spores. Using a sterile swab, and aseptic techniques, the spore inocula of A. niger and A. fumigatus were transferred to Sabouraud agar plates and spread evenly, ensuring that the entire surface was inoculated. They were then left to dry for 10 minutes. Amphotericin B (100 μg) in acetone was used as a control. Four antibiotic discs containing different compounds were place equidistant apart on each Sabouraud plate. […] If clear rings of inhibition were present, the diameter was measured twice using a caliper. Halos indicated partial inhibition of growth (Hicks et al., 2008). […] The paper towels were then allowed to dry. After, 5 cm from each edge of the paper towels was cut out (to prevent edge areas where spraying might have been irregular being tested), and from the remaining paper towels, a single hole punch machine was used to punch 6 mm paper discs from each of the paper towels.

Aspergillus niger = assay: as above; conditions: for A. niger, diameter of ring of inhibition: Sabouraud plate, 48 hrs at room temperature, 100 μg of compound per disc, Amphotericin B 100 ug or 20 μg
Description: as §2

Saccharomyces cerevisiae = assay: as above; conditions: for S. cerevisiae, diameter of ring of inhibition: Sabouraud plate, 18-24 hrs at 37° C., 100 μg of compound per disc, Amphotericin B 50 ug or 20 μg
Description: as §2, with “Amphotericin B (100 μg) in acetone was used as a control.” left out

Candida albicans = assay: as above; conditions: for C. albicans, diameter of ring of inhibition: Sabouraud plate, 18-24 hrs at 37° C., 100 μg of compound per disc, Amphotericin B 50 ug or 20 μg
Description: as §2, with “Amphotericin B (100 μg) in acetone was used as a control.” left out

[2] = 6 mm paper discs punched from paper towels, PAA-BZ-H 100 μg of solution onto paper discs, Amphotericin B 20 ug

Row | Compound | E. coli, diameter of ring of inhibition (Escherichia coli) | B. cereus, diameter of ring of inhibition (Bacillus cereus) | S. aureus, diameter of ring of inhibition (Staphylococcus aureus) | P. aeruginosa, diameter of ring of inhibition (Pseudomonas aeruginosa) | P. hauseri, diameter of ring of inhibition [1] | A. fumigatus, diameter of ring of inhibition (Aspergillus fumigatus) | A. niger, diameter of ring of inhibition (Aspergillus niger) | S. cerevisiae, diameter of ring of inhibition (Saccharomyces cerevisiae) | C. albicans, diameter of ring of inhibition (Candida albicans) | E. coli, diameter of ring of inhibition, antimicrobial paper towels (Escherichia coli) | B. cereus, diameter of ring of inhibition, antimicrobial paper towels (Bacillus cereus) | S. aureus, diameter of ring of inhibition, antimicrobial paper towels (Staphylococcus aureus) | P. hauseri, diameter of ring of inhibition, antimicrobial paper towels [1] | P. aeruginosa, diameter of ring of inhibition, antimicrobial paper towels (Pseudomonas aeruginosa; 6 mm paper discs punched from paper towels, antibiotic control discs 10 or 30 ug) | A. fumigatus, diameter of ring of inhibition, antimicrobial paper towels (Aspergillus fumigatus; [2]) | A. niger, diameter of ring of inhibition, antimicrobial paper towels (Aspergillus niger; [2]) | S. cerevisiae, diameter of ring of inhibition, antimicrobial paper towels (Saccharomyces cerevisiae; [2]) | C. albicans, diameter of ring of inhibition, antimicrobial paper towels (Candida albicans; [2])
1 | CCCCCCCCCCCCCC[N+](C)(C)Cc1ccccc1.[Cl-] [Compound 15, Benzyldimethyltetradecylammonium chloride] | 12.70 | 14.30 | 13.43 | 8.13 | 12.63 | 8.13 | 10.97 | 11.33 | 7.48 | – | – | – | – | – | – | – | – | –
2 | C[C@@H]1[C@H](O)[C@@H](C)/C=C/C=C/C=C/C=C/C=C/C=C/C=C/[C@H](O[C@@H]2O[C@H](C)[C@@H](O)[C@H](N)[C@@H]2O)C[C@@H]2O[C@](O)(C[C@@H](O)C[C@@H](O)[C@H](O)CC[C@@H](O)C[C@@H](O)CC(=O)O[C@H]1C)C[C@H](O)[C@H]2C(=O)O [Compound 13, Amphotericin B] | – | – | – | – | – | 11.19 | 17.86 | 8.39 | 9.35 | – | – | – | – | – | – | – | – | –
3 | CC1(C)S[C@@H]2[C@H](NC(=O)[C@H](N)c3ccccc3)C(=O)N2[C@H]1C(=O)O [Compound 12, Ampicillin] | 17.13 | 13.50 | 28.80 | – | 19.00 | – | – | – | – | 17.13 | 13.5 | 28.8 | 19 | – | – | – | – | –
4 | CN(C)[C@@H]1C(O)=C(C(N)=O)C(=O)[C@@]2(O)C(O)=C3C(=O)c4c(O)cccc4[C@@](C)(O)[C@H]3C[C@@H]12 [Compound 10, Tetracycline] | 20.45 | 20.30 | 23.30 | 10.75 | 29.50 | – | – | – | – | 20.45 | 20.3 | 23.3 | 29.5 | 10.75 | – | – | – | –
5 | C[C@@H]1[C@H](O)[C@@H](C)/C=C/C=C/C=C/C=C/C=C/C=C/C=C/[C@H](O[C@@H]2O[C@H](C)[C@@H](O)[C@H](N)[C@@H]2O)C[C@@H]2O[C@](O)(C[C@@H](O)C[C@@H](O)[C@H](O)CC[C@@H](O)C[C@@H](O)CC(=O)O[C@H]1C)C[C@H](O)[C@H]2C(=O)O [Compound 14, Amphotericin B] | – | – | – | – | – | 7.80 | 8.80 | 10.80 | 11.00 | – | – | – | – | – | 9.4 | 8.7 | 13.4 | 9.7
6 | O=C(N[C@H](CO)[C@H](O)c1ccc([N+](=O)[O-])cc1)C(Cl)Cl [Compound 11, Chloramphenicol] | 32.25 | 26.30 | 17.70 | – | 16.50 | – | – | – | – | 32.25 | 26.3 | 17.7 | 16.5 | – | – | – | – | –
7 | Penicillin [Compound 9] | 15.91 | – | 31.50 | – | 11.00 | – | – | – | – | 15.91 | – | 31.5 | 11 | – | – | – | – | –
